From article PMC6661780, “Design, synthesis, antiviral bioactivities and interaction mechanisms of penta-1,4-diene-3-one oxime ether derivatives containing a quinazolin-4(3H)-one scaffold” (BMC Chemistry, 2019) come the findings set out here.

The Kd is the free concentration of one partner at which half of the binding sites on the other are occupied at equilibrium, for simple one-to-one binding. Read a low Kd as tighter binding.

The target of the assay is T1, TMV CP (TMV coat protein) (Tobacco mosaic virus (vulgare), UniProt P69687).
T1 construct: NT-647 dye labelled for MST
T1 sequence (P69687 2-159 limits assumed): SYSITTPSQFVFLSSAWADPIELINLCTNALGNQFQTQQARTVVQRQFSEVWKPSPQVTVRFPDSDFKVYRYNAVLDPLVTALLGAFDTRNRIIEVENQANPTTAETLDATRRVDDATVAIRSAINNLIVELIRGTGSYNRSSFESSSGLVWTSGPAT
In words: microscale thermophoresis (Monolith NT.[…], NT-647-labelled protein). Format: binding. In general terms: In MST a laser heats a spot of the sample, and binding alters the fluorescence response.

Molecule `O=c1c2ccccc2ncn1CO/N=C(\C=C\c1ccccn1)/C=C/c1ccccc1OCc1ccc(Cl)cc1Cl` [8k] returned a Kd of 970 ± 690 nM.
